Values joined by “and” are separate entries in the source; they are usually repeats but may differ in a detail not shown here. Equal values may be shown once. “Also recorded” adds a separate entry of the source.
How the values were obtained:
HT29 intestinal cells = details: up to 70 mM in HT29 intestinal cells; cited from earlier work
[1] = test system: P. aeruginosa PAO1 biofilm; experiment: Confocal laser scanning microscopy (CLSM) of biofilm accumulation; type: cell-based, Pseudomonas aeruginosa; details: 3.30 mM cadaverine, 24 hrs, SYTO 9, n=5
Procedure: PAO1 overnight cultures were diluted to OD600=0.17 in LB with 0 or 3.30 mM cadaverine in 35×10 mm confocal dishes and incubated statically at 37° C. in 5% CO2 for 24 hrs. Liquid media was aspirated and adhered biofilm was stained with SYTO 9 for 10 min and washed with PBS. CLSM stitched images were collected (n=5) with a laser power of 4.5% under 10× magnification using an Olympus FluoView FV10i CLSM. Mean gray scale value and surface area coverage were quantified using Fiji.

P. aeruginosa = details: previous studies; cited from earlier work
PAO1 Td-tomato or Xen41 = experiment: Culture imaging by photo, dissecting microscope and IVIS (biofilm morphology); type: cell-based, Pseudomonas aeruginosa; details: 3.30 mM cadaverine
Procedure: PAO1 Td-tomato or Xen41 cultures were grown similarly to CLSM cultures described above. iPhone 8 images were taken in a controlled well-lit environment. The air-liquid interface was imaged using an Amscope dissecting microscope with an MU500 camera. Xen41 light emission was detected with an IVIS Lumina II system (Caliper LifeSciences) as an indicator of biofilm activity.

P. aeruginosa PAO1 = experiment: Microtiter plate assay: planktonic growth (OD600) and crystal violet staining of biofilm (OD590); type: cell-based, Pseudomonas aeruginosa
Procedure: Cadaverine (Sigma Aldrich) 5- or 10-mM stocks were prepared in LB and sterile filtered with a […] filter. […] […] Outer edge wells were filled with PBS to avoid “edge effects” due to evaporation. OD600 was measured to quantify planktonic growth. Liquid media was gently aspirated, and wells were washed three times with 150 μL PBS. Adhered biofilm was stained with 125 μL of 0.1% crystal violet (CV) in 20% ethanol in ddH2O (v/v) for 30 min. CV was gently aspirated, wells were washed five times with 150 μL PBS, and CV was solubilized with 150 μL 33% glacial acetic acid in ddH2O (v/v) by shaking gently at 100 rpm at room temperature for 25 min. CV was quantified at OD590 to report biofilm accumulation. LB blanks were averaged and subtracted from readings. Control PAO1 wells were averaged, and all measurements were normalized to control measurements per plate and reported as percent change from control.

rats = details: 2,000 mg/kg body weight in rats; cited from earlier work
[2] = PAO1 Td-tomato, cadaverine 24 hrs
[3] = pre-formed biofilm: grown 24 hrs, then cadaverine for additional 24 hrs

## NCCCCCN [Cadaverine]
HT29 intestinal cells
  cytotoxicity: negligible cytotoxicity
[1]
  reduction in biofilm accumulation by mean grayscale value: 54.5±26.0% and 55%
  reduction in biofilm accumulation by surface area coverage: 79.8±55.1% and 80%
P. aeruginosa
  effect on effectiveness of β-lactams: enhances the effectiveness of many β-lactams
PAO1 Td-tomato or Xen41; 24 hrs, standing liquid culture, PAO1 Td-tomato
  biofilm morphology: more aggregate-like, in a pellicle
PAO1 Td-tomato or Xen41; PAO1 Xen41, air-liquid interface
  metabolic state of pellicle biofilm (IVIS luminescence): metabolically active
P. aeruginosa PAO1; OD600, 0-3.30 mM cadaverine
  bactericidal or bacteriostatic effect: not bactericidal; also recorded: did not have a bactericidal or bacteriostatic effect
P. aeruginosa PAO1; [2]
  biofilm accumulation decrease (crystal violet OD590), percent change from control: 37%
  planktonic growth increase (OD600), percent change from control: 4%
P. aeruginosa PAO1; WT PAO1, 0-3.30 mM cadaverine from initiation, 24 hrs, maximal (3.30 mM)
  planktonic growth increase (OD600), percent change from control: 20.5±4.2% and 21%
P. aeruginosa PAO1; WT PAO1, 25 μM cadaverine, 24 hrs
  biofilm accumulation (crystal violet OD590) at low concentration: increased marginally
P. aeruginosa PAO1; [3]
  biofilm accumulation decrease (crystal violet OD590), percent change from control: 39.8±2.5% and 40%
  planktonic growth increase (OD600), percent change from control: 5.8±1.8% and 6%
rats
  acute oral toxicity: low acute oral toxicity

— US12332198B2, “Metabolite based diagnostics for periprosthetic joint infection” (priority 2022, dated 2025)
